Reference: ChEMBL document CHEMBL1123334, “4-Amino-6-chloro-2-piperazinopyrimidines with selective affinity for alpha 2-adrenoceptors” (J Med Chem, 1986)

How the values were obtained:
[1] = biological target: T1, Adrenergic receptor alpha-2 (Rattus norvegicus, UniProt P22086+P19328+P22909)
T1 sequence (P22086 whole entry): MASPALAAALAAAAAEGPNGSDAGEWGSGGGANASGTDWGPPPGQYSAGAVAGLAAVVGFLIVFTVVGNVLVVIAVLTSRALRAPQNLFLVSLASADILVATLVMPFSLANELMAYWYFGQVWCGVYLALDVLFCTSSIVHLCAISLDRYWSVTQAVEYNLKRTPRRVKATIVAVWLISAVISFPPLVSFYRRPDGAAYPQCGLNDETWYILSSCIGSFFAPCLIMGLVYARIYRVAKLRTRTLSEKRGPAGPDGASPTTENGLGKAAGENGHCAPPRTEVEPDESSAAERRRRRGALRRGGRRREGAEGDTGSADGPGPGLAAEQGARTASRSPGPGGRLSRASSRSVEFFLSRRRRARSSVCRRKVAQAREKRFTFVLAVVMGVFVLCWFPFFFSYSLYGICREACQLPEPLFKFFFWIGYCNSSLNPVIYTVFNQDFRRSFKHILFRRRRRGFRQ
T1 sequence (P19328 whole entry): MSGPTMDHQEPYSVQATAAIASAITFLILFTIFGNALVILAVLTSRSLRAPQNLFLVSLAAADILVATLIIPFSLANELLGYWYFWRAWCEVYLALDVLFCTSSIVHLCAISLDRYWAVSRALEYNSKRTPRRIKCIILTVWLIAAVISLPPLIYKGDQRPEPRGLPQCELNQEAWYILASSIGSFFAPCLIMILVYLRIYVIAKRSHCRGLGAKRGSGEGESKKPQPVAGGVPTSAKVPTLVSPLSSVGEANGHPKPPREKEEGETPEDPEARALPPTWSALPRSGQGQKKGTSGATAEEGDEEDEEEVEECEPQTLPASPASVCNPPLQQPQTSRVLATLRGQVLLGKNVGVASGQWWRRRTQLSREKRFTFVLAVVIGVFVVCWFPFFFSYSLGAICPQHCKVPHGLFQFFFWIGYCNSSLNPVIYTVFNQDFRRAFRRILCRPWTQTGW
T1 sequence (P22909 whole entry): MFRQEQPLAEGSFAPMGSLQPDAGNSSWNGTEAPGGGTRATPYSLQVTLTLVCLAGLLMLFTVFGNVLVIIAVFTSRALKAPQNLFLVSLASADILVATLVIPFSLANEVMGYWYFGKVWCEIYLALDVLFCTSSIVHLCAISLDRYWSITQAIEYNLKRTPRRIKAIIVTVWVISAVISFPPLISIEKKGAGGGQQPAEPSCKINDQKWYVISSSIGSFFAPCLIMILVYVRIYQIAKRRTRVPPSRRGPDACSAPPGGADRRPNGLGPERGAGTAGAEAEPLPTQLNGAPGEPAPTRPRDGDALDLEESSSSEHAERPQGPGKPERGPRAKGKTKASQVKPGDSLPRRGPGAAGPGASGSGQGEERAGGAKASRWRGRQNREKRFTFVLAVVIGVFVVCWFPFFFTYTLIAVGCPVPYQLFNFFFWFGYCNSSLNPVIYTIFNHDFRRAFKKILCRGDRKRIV

[2] = biological target: T1, Adrenergic receptor alpha-2; assay: Inhibition of [3H]idazoxan binding to alpha-2 adrenergic receptor of rat cortical membranes; assay type: cell membranes, Membrane
[3] = biological target: T2, Adrenergic receptor alpha-1 (Rattus norvegicus, UniProt P15823+P23944+P43140); assay: In vitro binding affinity was measured as the inhibition of [3H]WB-4101 binding to alpha-1 adrenergic receptor of rat cortical membranes; assay type: cell membranes, Membrane
T2 sequence (P15823 whole entry): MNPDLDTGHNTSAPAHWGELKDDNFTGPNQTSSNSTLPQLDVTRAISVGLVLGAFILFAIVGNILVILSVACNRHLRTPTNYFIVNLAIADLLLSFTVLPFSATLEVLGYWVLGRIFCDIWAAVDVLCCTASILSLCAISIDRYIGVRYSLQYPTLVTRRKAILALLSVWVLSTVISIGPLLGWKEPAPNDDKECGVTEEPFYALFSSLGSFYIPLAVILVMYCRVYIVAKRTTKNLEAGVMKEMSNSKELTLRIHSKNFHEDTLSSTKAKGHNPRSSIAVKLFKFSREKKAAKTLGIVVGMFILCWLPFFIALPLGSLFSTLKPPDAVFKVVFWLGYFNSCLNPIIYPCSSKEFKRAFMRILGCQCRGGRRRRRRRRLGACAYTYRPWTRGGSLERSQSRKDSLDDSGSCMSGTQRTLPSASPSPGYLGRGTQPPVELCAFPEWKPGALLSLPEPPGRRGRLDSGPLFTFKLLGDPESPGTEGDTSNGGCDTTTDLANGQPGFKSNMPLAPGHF
T2 sequence (P23944 whole entry): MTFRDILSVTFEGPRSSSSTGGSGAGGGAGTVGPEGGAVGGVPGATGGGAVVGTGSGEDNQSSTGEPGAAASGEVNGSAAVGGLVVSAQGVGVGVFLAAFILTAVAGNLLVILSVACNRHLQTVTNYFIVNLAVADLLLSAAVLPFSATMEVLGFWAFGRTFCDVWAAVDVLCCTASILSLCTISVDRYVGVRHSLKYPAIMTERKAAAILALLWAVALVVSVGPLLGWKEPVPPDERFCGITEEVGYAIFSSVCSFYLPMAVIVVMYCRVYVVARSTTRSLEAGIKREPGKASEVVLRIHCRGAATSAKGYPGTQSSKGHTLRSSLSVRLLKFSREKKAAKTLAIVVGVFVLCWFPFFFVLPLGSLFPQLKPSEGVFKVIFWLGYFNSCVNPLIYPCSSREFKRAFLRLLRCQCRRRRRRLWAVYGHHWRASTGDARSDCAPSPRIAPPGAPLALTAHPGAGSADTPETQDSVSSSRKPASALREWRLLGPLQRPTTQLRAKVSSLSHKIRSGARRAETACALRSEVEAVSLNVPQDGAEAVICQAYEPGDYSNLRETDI
T2 sequence (P43140 whole entry): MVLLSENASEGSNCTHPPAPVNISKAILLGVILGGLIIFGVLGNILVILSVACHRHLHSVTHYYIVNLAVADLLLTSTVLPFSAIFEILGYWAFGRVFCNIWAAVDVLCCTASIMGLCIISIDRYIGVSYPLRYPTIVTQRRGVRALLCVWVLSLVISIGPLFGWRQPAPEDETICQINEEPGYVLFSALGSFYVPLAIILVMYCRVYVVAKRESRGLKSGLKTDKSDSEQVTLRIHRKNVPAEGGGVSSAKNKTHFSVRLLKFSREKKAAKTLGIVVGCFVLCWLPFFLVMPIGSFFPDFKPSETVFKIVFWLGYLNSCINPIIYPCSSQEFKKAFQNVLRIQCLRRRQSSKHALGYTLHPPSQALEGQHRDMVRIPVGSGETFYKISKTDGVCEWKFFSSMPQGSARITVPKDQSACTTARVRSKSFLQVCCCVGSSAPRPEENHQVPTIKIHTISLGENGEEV

[4] = biological target: Dopamine receptor; assay: In vitro binding affinity to Dopamine receptors of rat striatal membranes by [3H]spiroperidol displacement.
[5] = biological target: T1, Adrenergic receptor alpha-2; assay: In vitro binding affinity was measured as the inhibition of [3H]idazoxan to alpha-2 adrenergic receptors of rat cortical membranes; assay type: cell membranes, Membrane

Row | Structure (SMILES) | Ki [1] [nM] | Ki [2] [nM] | Ki [3] [nM] | Ki [4] [nM] | Ki [5] [nM]
1 | CNc1cc(Cl)nc(N2CCN(C)CC2)n1 | 50 | 100 | 280 | 630 | 
2 | CNc1nc(N2CCN(C)CC2)nc(Cl)c1Cl | 44 |  | 4 | 1200 | 
3 | CN1CCN(c2nc(N)c(Br)c(Cl)n2)CC1 | 1600 |  | 820 | 10000 | 
4 | CN1CCN(c2nc(Cl)c(Cl)c(NC3CCCC3)n2)CC1 | 120 |  | 240 |  | 97
5 | CSc1c(Cl)nc(N2CCN(C)CC2)nc1Nc1ccccc1 | 240 | 500 | 140 |  | 
6 | CSc1c(Cl)nc(N2CCN(C)CC2)nc1NC(C)(C)C | 180 |  | 450 | 920 | 
7 | Cc1c(Cl)nc(N2CCN(C)CC2)nc1NC(C)C | 16 |  | 200 | 880 | 
8 | CNc1nc(Cl)c(SC)c(N2CCN(C)CC2)n1 [MEZILAMINE] | 9 | 12 | 91 |  | 
9 | CSc1c(Cl)nc(N2CCN(C)CC2)nc1NCCc1ccccc1 | 910 |  | 180 | 1400 | 
10 | CC(C)Nc1nc(N2CCNCC2)nc(Cl)c1Br | 16 | 28 | 200 | 880 | 
11 | CSc1c(Cl)nc(N2CCN(C)CC2)nc1NCc1ccccc1 | 1500 |  | 100 | 14 | 
12 | COc1c(Cl)nc(N2CCN(C)CC2)nc1NC(C)C | 50 |  | 310 |  | 
13 | CSc1c(Cl)nc(N2CCN(C)CC2)nc1NC(C)C | 26 |  | 360 | 640 | 
14 | CC(C)Nc1nc(N2CCN(C)CC2)nc(Cl)c1Cl | 5 |  | 42 | 2400 | 14
15 | CC(C)Nc1cc(Cl)nc(N2CCN(C)CC2)n1 | 130 |  | > 180 |  | 200
16 | Cc1c(Cl)nc(N2CCNCC2)nc1NC(C)C | 6 | 13 | 860 | 2900 | 

Row | Structure (SMILES) | Ki [1] [nM] | Ki [2] [nM] | Ki [3] [nM] | Ki [4] [nM] | Ki [5] [nM]
17 | CSc1c(Cl)nc(N2CCNCC2)nc1NC(C)C | 36 | 62 | 500 | 3000 | 
18 | COC(=O)[C@@H]1[C@H]2C[C@H]3c4[nH]c5ccccc5c4CCN3C[C@@H]2CC[C@@H]1O [YOHIMBINE] |  |  |  | 2000 | 
19 | CNc1nc(N2CCN(C)CC2)nc(Cl)c1SC | 360 |  | 1800 |  | 
20 | CC(C)Nc1nc(N2CCN(C)CC2)nc(Cl)c1Br | 7 |  | 290 | 480 | 
21 | CC(COc1ccccc1)N(CCCl)Cc1ccccc1 (stereo not drawn) [PHENOXYBENZAMINE] |  |  | 1.8 | 120 | 
22 | Clc1cccc(Cl)c1NC1=NCCN1 [CLONIDINE] |  |  |  | > 4000 | 
23 | CSc1c(N)nc(N2CCN(C)CC2)nc1Cl | 620 |  | 820 | 1000 | 
24 | CNc1nc(N2CCN(C)CC2)nc(Cl)c1Br | 150 |  | 180 | 200 | 
25 | CSc1c(Cl)nc(N2CCN(C)CC2)nc1NC1CCCC1 | 22 |  | 76 | 1200 | 
26 | CCNc1nc(N2CCN(C)CC2)nc(Cl)c1SC | 90 |  | 1800 |  | 
27 | CN1CCN(c2nc(Cl)c(Br)c(NC3CCCC3)n2)CC1 | 140 | 230 | 250 |  | 
28 | CN1CCN(c2nc(N)c(Cl)c(Cl)n2)CC1 | 50 |  | 67 |  | 
29 | COc1c(Cl)nc(N2CCN(C)CC2)nc1NC1CCCC1 | 50 | 29 | 1700 | 670 | 
30 | CNc1nc(N2CCN(C)CC2)nc(Cl)c1OC | 150 |  | 1700 |  | 
31 | CSc1c(Cl)nc(N2CCN(C)CC2)nc1NC1CCCCC1 | 290 |  | 240 |  | 
